# Columns and labels:
# HCT-116 cells = assay: BrdU incorporation into DNA (flow cytometry); type: cell-based, human; set-up: unit not given here; settings: inhibition of BrdU incorporation, unit not given; for BrdU 24: analysis at 24 hours; for BrdU 48: analysis at 48 hours; for BrdU 72: analysis at 72 hours
# Method: This method measured the percentage of cells that incorporated the nucleotide analog, BrdU, into newly synthesized DNA as cells progressed through the S phase of the cell cycle. The inhibition of BrdU incorporation was used as a measure of a Cdlc inhibitor's effect on S phase progression and DNA replication.
# 3 sets of HCT-116 cells (100,000 cells/set) were plated in T25 flasks and incubated with a test compound as above. Analysis was done at 24, 48, and 72 hours. BrdU was added to each T-25 flask from a stock of 10 mg/ml to a final concentration of 10 μM and the cells were incubated for an additional 16-18 hours at 37° C. The cells were then prepared for flow cytometric analysis according to manufacturer's protocol (BrdU Flow kit, BD-Pharmingen catalogue # 2354KK) as follows:
# Cells were harvested (adherent and floating) from the T25 flasks directly into Falcon 12×75 flow cytometric tubes as above followed by fixation and permeabilization with the addition of 100 μl Cytofix/Cytoperm buffer (30 minutes, room temperature). The cells were then washed with 1 ml of Perm Wash buffer and the cell pellets were resuspended in 100 μl Cytoperm Plus buffer and incubated on ice for 10 minutes. The cells were then washed again with 1 ml of Perm Wash buffer and the fixation was repeated in 100 μl of Cytofix/Cyto Perm buffer for 10 minutes at room temperature. The cells were then washed with 1 ml of Perm Wash buffer. The cells were next treated for one hour at 37° C. with 100 μl DNase to expose incorporated BrdU followed by another wash step with 1 ml of Perm Wash buffer. […] Cells were protected from light and incubated at room temperature for 20-30 minutes. Following the incubation, the cells were washed with 1 ml of Perrn Wash buffer, resuspended in 300 μl of 2% FBS in PBS, and analyzed on the flow cytometer.
# [1] = system: NCI panel of 60 cell lines; assay: NCI panel of human tumor cell lines (SRB assay), MG-MID; type: cell-based; settings: 48 hours incubation with compound
# Description: (§1) The evaluation of compounds at the National Cancer Institute in their panel of 60 cell lines provides a wealth of information regarding efficacy in a wide range of tumor types and genetic backgrounds. Included within this panel are cell lines derived from leukemia, melanoma and cancers of the lung, colon, brain, ovary, breast, prostate and kidney. Use of this panel provides a measure of the efficacy of compounds in cells with alterations in many genes that are associated with neoplastic transformation including p53 and Her2/Neu as well as those involved in metabolism and those which confer multi-drug resistance. The data generated in these cell lines with the protocol described below can be used to evaluate the activity of compounds.
# (§2) Cells were grown in RPMI-1640 10% FCS and plated in 96 well micro-titer plates at densities ranging from 5,000 to 40,000 cells/well. The plates were incubated for 24 hours at 37° C., 5% CO2 for 24 hours. Media containing twice the desired final concentration of the compound (5 doses spanning 4 logs) was prepared and 100 μl was added to each well containing 100 μl media plus cells to yield the desired final concentration. The plates were then incubated for an additional 48 hours.
# (§3) The effect of the compound on cellular viability was determined with the Sulforhodamine B (SRB) assay which measures total protein. Cells were fixed with cold TCA to a fmal concentration of 10% and incubated at 4° C. for 60 minutes. The supernatant was discarded and the plates were washed five times with water and air-dried. SRB solution at […] in 1% acetic acid was added to each well and the plates were incubated for 10 minutes at room temperature. The plates were washed five times with 1% acetic acid and air-dried. The bound stain was solubilized with 10 mM trizma base and the absorbance was read on a plate reader at […].
# ADR-res = assay: NCI panel (SRB assay), ADR-res cell line; type: cell-based, human; settings: 48 hours incubation with compound, unit not given
# Description: as §1, §2, §3
# arrested HCT-116 cells = assay: Arrested cell assay (serum starvation), HCT-116; type: cell-based, human; set-up: unit not given here; settings: serum-starved arrested cells; unit not given
# Method: Cyclin-dependent kinase (Cdk) activity is required to promote the progression of cells through distinct phases of the cell division cycle. The proliferation of normal, non-transformed, cells in culture requires the presence of growth factors, the removal of which, through serum deprivation, leads to a loss of Cdlc activity and consequent exit from the cell cycle as cells enter the quiescent phase, Go.
# HCT-116 cells were plated in triplicate for each compound concentration to be tested in RPMI 1640 media containing 10% fetal calf serum at a density of either 200 or 2,000 cells per well in 24 well dishes, and incubated overnight at 37° C., 5% CO2. The media from the plate containing 2,000 cells per well was removed, cells were washed once with serum free media and 1 ml of serum free media was placed on cells. Tle plates containing cells both in the presence and absence of serum were incubated for 6 additional days.
# To ensure that the cells had indeed exited the cell cyde upon serum withdrawal, the percentage of BrdU positive cells, indicative of those progressing through S phase, was determined in each experiment. For the purpose of this experiment, cellular viability was evaluated simultaneously with the use of SNARF-1, a fluorescent substrate of intracellular esterases which are only active in viable cells. Together, the evaluation of BrdU incorporation and SNARF-1 cleavage by flow cytometry provided an assessment of the viability of arrested cells on a single cell basis. For this analysis, the cells were stained with SNARF-1 as follows and then prepared for determination of BrdU incorporation as described above.
# HCT-116 and IMR90 cells were plated at the density described below in T25 flasks in serum-containing media (RPMI-1640 or MEM-a with 10% FCS, respectively). After 24 hours of growth, the media was removed and, after washing the cells, replaced with serum-free media. • HCT-116+FCS 5,000 cells • HCT-116−FCS 100,000 cells • IMR90+FCS 100,000 cells • IMR90−FCS 200,000 cells
# The IMR90 cells were grown for an additional 3 days and the HCT-116 cells were grown for an additional 6 days before pulsing with BrdU. A 50 μg aliquot of SNARF-1 (Molecular Probes catalog #C1272) was dissolved in 50 μl DMSO at room temperature for 10 minutes and then diluted into 10 ml PBS. The SNARF-1 was further diluted 1:64,000 before 200 μl was added to each tube of cells which had been cultured in the presence or absence of serum and pulsed with BrdU for 20 hours. The cells were incubated at 37° C. for 30 minutes and then washed with 3 ml of PBS.
# These cells were then fixed and prepared for the measurement of BrdU incorporation as described above. The percentage of viable (FL-2) and BrdU positive (FL-1) cells was determined on a FACScan flow cytometer.
SMILES,BrdU 24 (HCT-116 cells),BrdU 48 (HCT-116 cells),BrdU 72 (HCT-116 cells),NCI panel MG-MID [1] [µM],NCI panel ADR-res (ADR-res),Arrested cell HCT (arrested HCT-116 cells)
CC(C)c1nn(-c2c(Cl)cccc2Cl)c2nc(Cc3ccc(O)c(CN4CCN(C(C)C)CC4)c3)[nH]c(=O)c12.Cl.Cl [Compound C],<0.1,<0.1,<1,<0.1,<0.1,<0.01
Cl.Cl.Cl.O=C(Nc1cccc2c1C(=O)c1c-2n[nH]c1-c1ccc(OCCN2CCCC2)cc1)NN1CCOCC1 [Compound I],<0.01,<0.1,<0.1,<0.1,<1,<0.1
CC(C)N1CCN(CCOc2ccc(-c3[nH]nc4c3C(=O)c3c(NC(=O)NN5CCOCC5)cccc3-4)cc2)CC1.Cl.Cl.Cl [E],<0.01,<0.1,<0.1,<0.1,<1,<0.1
CN1CCN(NC(=O)Nc2cccc3c2C(=O)c2c-3n[nH]c2-c2ccc(OCCN3CCCC3)cc2)CC1.Cl.Cl.Cl [F],–,<0.1,<1,<0.1,<1,<0.1
CCCN(CCOc1ccc(-c2[nH]nc3c2C(=O)c2c(NC(=O)NN4CCOCC4)cccc2-3)cc1)CC1CC1.Cl.Cl.Cl [G],<0.01,<0.1,<0.1,<0.1,<1,<0.1
Cl.Cl.Cl.O=C(Nc1cccc2c1C(=O)c1c-2n[nH]c1-c1ccc(OCCN(CCO)CCO)cc1)NN1CCOCC1 [H],<1,<1,<1,<0.1,>10,<0.1
CC(C)N1CCN(Cc2cc(-c3[nH]nc4c3C(=O)c3c(NC(=O)NN5CCOCC5)cccc3-4)ccc2O)CC1.Cl.Cl.Cl.Cl [K],<0.1,<0.1,<0.1,<0.1,<10,<0.01
CN1CCN(NC(=O)Nc2cccc3c2C(=O)c2c-3n[nH]c2-c2ccc(OCCN3CCOCC3)cc2)CC1.Cl.Cl [Q],<0.1,<0.1,<0.1,<0.1,<10,<0.1

# Source: patent US20050090471A1, “Inhibitors of cyclin-dependent kinases, compositions and uses related thereto” (GPC Biotech, Inc, priority 2001, published 2005)
